This passage reports IC50 results from article PMC11985661 (Naunyn-Schmiedeberg's Archives of Pharmacology, 2024).

Like-named read-outs stand apart in the source and are kept apart here.

One experiment has as its system MCF-7. Put plainly: MTT cytotoxicity assay. It counts as cell-based. To be noted: Homo sapiens, read-out: IC50 MCF-7. Here is the method: (§1) Numerous cancer cell lines were procured from the American Type Culture Collection (ATCC) situated in Manassas, USA. […] The culture medium was supplemented with penicillin (100 units/mL), streptomycin ([…]), and heat-inactivated fetal bovine serum (10%). The cultivation of these cancer cells was carried out in a humidified atmosphere with 5% (v/v) CO2 at a temperature of 37 °C.
(§2) The 3-[4,5-dimethylthiazole-2-yl]-2,5-diphenyltetrazolium bromide (MTT) assay was used to evaluate the cytotoxicity of different substances or treatments. A commonly used approach for assessing the viability and proliferation of cells, including the cancer cell lines described, is colorimetric analysis.
(§3) Actively proliferating cells from different cancer cell lines were first trypsinized and quantified. […] These seeded cells were incubated in a humidified environment at 37 °C for 24 h to allow for cell attachment and acclimation.
(§4) Following the initial incubation, the cells were subjected to different doses of the chemicals under investigation, ranging from 0.1 to 1000 μM, for a duration of 72 h. The MTT assay was used to evaluate the treated cells’ vitality. Specifically, the culture media were removed, and the cells were incubated with 200 μl of 5% MTT solution per well.
(§5) Due to this, the MTT dye was metabolized by the living cells over the course of 2 h, forming colorful, insoluble formazan crystals.
(§6) This allowed the viable cells to metabolize the MTT dye into colored, insoluble formazan crystals over a 2-h period. After this incubation, the formazan crystals were dissolved in 200 μl of acidified isopropanol per well for 30 min after the residual MTT solution was withdrawn. This dissolution step was carried out at room temperature with a MaxQ 2000 plate shaker, covered with aluminum foil and continuously shaking.
(§7) The absorbance of the dissolved formazan crystals was measured at 570 nm through the use of Stat FaxR 4200 plate reader.
Background: Formazan colour is commonly taken as a measure of viable cells.

The target in another experiment is T1, VEGFR-2 (Homo sapiens, UniProt P35968).
T1 construct: purchased Millipore, UK
Description: In vitro VEGFR-2 kinase assay (Alpha Screen, anti-phosphotyrosine antibody). It counts as biochemical. The conditions noted are these: mean of three separate experiments.

For a further experiment, the target named is T2, EGFR^T790M (Homo sapiens, UniProt P00533, T790M).
T2 construct: purchased Sigma
Description: EGFR^T790M kinase inhibition assay (HTRF). It counts as biochemical. To be noted: mean of three separate experiments. In general terms: Time-resolved FRET reads energy transfer from a long-lived donor to a nearby acceptor.

The test system of another experiment is A549. Put plainly: MTT cytotoxicity assay. The conditions noted are these: Homo sapiens, 72 h, mean of three separate experiments. It is filed as cell-based. As to the method:
as §1, §2, §3, §4, §5, §6, §7

Another experiment concerns HepG2. Description: MTT cytotoxicity assay. The conditions noted are these: Homo sapiens, read-out: IC50 HepG2. It counts as cell-based. Here is the method:
as §1, §2, §3, §4, §5, §6, §7

In a further experiment the test system is HCT116. Description: MTT cytotoxicity assay. It is filed as cell-based. To be noted: Homo sapiens, HCT-116, 72 h, mean of three separate experiments. Here is the method:
as §1, §2, §3, §4, §5, §6, §7

T1 sequence (P35968 20-1356): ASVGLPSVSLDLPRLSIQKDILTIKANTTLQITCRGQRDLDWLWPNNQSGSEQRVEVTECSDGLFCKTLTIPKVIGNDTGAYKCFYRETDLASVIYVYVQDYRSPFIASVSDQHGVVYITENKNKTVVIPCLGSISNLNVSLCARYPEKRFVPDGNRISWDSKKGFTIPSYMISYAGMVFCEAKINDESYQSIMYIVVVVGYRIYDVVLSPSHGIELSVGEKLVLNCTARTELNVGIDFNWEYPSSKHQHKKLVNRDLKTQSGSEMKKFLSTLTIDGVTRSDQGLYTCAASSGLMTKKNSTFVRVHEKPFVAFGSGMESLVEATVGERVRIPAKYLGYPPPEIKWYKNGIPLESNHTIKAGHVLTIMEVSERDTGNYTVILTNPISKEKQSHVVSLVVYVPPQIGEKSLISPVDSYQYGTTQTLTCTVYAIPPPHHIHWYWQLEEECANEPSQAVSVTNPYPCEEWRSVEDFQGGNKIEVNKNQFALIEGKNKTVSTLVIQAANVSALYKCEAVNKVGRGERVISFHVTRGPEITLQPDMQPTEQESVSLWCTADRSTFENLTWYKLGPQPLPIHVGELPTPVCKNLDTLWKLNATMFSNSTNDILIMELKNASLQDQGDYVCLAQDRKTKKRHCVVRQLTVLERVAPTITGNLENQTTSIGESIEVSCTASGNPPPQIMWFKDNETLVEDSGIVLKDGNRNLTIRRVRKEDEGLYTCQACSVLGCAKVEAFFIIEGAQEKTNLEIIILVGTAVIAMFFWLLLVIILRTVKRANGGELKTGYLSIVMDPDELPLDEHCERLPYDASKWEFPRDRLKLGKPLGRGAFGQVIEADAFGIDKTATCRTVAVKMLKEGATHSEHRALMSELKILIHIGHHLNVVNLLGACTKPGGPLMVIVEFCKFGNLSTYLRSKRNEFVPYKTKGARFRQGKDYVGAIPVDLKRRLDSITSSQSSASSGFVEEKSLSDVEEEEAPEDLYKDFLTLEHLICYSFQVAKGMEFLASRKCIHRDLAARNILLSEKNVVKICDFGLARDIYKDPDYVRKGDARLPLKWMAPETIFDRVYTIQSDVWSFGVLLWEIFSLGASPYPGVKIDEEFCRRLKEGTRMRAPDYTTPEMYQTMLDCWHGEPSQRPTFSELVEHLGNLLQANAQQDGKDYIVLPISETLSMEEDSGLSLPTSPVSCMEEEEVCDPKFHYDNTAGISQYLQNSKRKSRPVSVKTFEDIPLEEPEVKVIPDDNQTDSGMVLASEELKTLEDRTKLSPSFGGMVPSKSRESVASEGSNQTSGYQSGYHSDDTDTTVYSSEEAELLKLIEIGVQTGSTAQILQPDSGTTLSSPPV
T2 sequence (P00533 25-1210 T790M): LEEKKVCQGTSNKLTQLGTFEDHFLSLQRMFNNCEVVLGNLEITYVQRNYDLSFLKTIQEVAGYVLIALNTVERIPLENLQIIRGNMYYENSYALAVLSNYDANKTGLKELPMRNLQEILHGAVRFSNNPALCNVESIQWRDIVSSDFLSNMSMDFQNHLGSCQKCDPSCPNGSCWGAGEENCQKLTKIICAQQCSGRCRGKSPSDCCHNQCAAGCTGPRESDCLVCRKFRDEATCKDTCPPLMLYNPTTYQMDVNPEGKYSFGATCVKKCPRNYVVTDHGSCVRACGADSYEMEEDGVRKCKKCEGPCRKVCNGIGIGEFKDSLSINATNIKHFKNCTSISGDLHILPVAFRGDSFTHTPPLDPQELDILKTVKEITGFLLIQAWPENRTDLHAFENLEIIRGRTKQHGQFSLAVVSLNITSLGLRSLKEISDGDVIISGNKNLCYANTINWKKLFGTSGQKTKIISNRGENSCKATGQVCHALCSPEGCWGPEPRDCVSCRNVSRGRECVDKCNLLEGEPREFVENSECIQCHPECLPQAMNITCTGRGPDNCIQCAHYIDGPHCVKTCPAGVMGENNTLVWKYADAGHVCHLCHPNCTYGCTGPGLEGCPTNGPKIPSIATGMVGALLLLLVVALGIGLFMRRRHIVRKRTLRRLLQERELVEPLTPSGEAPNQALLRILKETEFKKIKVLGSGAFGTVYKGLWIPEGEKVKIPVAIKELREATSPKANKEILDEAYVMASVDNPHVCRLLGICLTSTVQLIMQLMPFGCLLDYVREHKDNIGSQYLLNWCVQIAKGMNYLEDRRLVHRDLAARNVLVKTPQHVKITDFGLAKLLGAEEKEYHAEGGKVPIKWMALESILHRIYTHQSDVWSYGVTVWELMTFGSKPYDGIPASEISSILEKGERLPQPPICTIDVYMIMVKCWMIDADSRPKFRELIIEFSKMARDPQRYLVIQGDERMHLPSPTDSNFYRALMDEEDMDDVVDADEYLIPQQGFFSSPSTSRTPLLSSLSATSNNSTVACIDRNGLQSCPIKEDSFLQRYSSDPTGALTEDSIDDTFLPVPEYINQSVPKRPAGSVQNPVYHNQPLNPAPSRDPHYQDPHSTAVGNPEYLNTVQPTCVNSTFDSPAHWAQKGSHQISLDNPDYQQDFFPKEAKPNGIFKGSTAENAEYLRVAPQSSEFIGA
Description for EGFR^T790M: The study utilized the homogeneous time resolved fluorescence (HTRF) assay to evaluate the kinase activity of EGFR^T790M mutant. The EGFR^T790M enzyme and ATP were obtained from Sigma. Initially, the tested chemical was first incubated for 5 min with the EGFR^T790M enzyme and its substrates in an enzymatic buffer. This pre-incubation step allowed the compound to interact with the enzyme before the catalytic reaction was initiated. […] The assay was carried out at room temperature for 30 min. The samples were mixed with detection reagents containing EDTA to stop the enzymatic process. The detection phase was allowed to proceed for 1 h. By utilizing GraphPad Prism 5.0 software, the inhibitory potency of the tested compounds was determined by calculating the half-maximal inhibitory concentration (IC50) values. Three independent measurements were done to determine the concentration of each compound.
Description for VEGFR-2: Analyzing the assay of VEGFR-2 kinase involved utilizing the Alpha Screen system (PerkinElmer, USA) and an anti-phosphotyrosine antibody in accordance with the manufacturer’s protocol. A solution containing 50 mM Tris–HCl (pH 7.5), 5 mM MnCl2, 5 mM MgCl2, 0.01% Tween-20, and 2 mM DTT was used to conduct the enzyme reactions. A total of 10 μM ATP, 0.1 μg/mL of biotinylated poly-GluTyr (in a 4:1 ratio), and 0.1 nM of VEGFR-2 (Millipore, UK) were all added in the reaction mixture.
After an overnight dark incubation, the plate was read using an ELISA Reader (PerkinElmer, USA). The baseline control was represented by wells with biotinylated poly-GluTyr (4:1) and the enzyme but without ATP, and the reaction control was provided by wells with the substrate and the enzyme but not the tested compounds.
The percentage inhibition was computed by comparing contrasting the compound-treated samples with the control incubations.

For orientation: IC50 means the concentration that inhibits the measured activity by half. `C#Cc1cccc(Nc2ncnc3cc(OCCOC)c(OCCOC)cc23)c1` [Erlotinib]: in the experiment with MCF-7 (MCF7, 72 h), the IC50 was 8.2 µM.
In the case of `C[C@@H]1O[C@@H](OC[C@H]2O[C@@H](Oc3c(-c4ccc(O)c(O)c4)oc4cc(O)cc(O)c4c3=O)[C@H](O)[C@@H](O)[C@@H]2O)[C@H](O)[C@H](O)[C@H]1O` [Rutin (3), rutin], the IC50 worked out at 1.18 µM at VEGFR-2; 0.66 µM against EGFR^T790M; 12.3 µM with MCF-7 (MCF7, MTT, 72 h, mean of three separate experiments); 8.71 µM in the experiment with A549; 14.9 µM in the experiment with HepG2 (HepG2, MTT, 72 h, mean of three separate experiments); 15.6 µM with HCT116.
With `CNC(=O)c1cc(Oc2ccc(NC(=O)Nc3ccc(Cl)c(C(F)(F)F)c3)cc2)ccn1` [Sorafenib], the concentration for half-maximal inhibition (IC50) with HepG2 (HepG2, 72 h) was 4 µM.
